According to patent US8637038B2, “Methods for inhibiting allograft rejection” (Rigel Pharmaceuticals, Inc., priority 2011, dated 2014):
Several values for one entry are separate records, joined by “and”; a condition that tells them apart may be missing. Equal values may be shown once. Read-outs that look alike come from different tables or passages of the source.

Columns and labels:
[1] = system: JAK1/3; experiment: IL-2 whole blood lymphocytes phospho-STAT5; assay type: cell-based; settings: Lymphocyte, read-out: IL-2 whole blood lymphocytes phospho-STAT5 EC50
Experimental: (§1) The activity of Compound III and Compound I was assessed in a panel of cell-based assays. Compound III and Compound I are selective inhibitors of JAK1/3-dependent signaling. Data for a non-selective JAK inhibitor (Compound IV) is shown for reference. Mixed lymphocyte reactions (MLRs) were performed by incubating freshly prepared naive human peripheral blood lymphocytes from one donor with CD80+/CD86+ mature Dendritic Cells derived from a different donor for 5 days. The percentage of CD3+/CD71+ (anti-CD3-APC, Clone HIT3a, anti-CD 71-FITC, Clone M-A712; BD Biosciences, San Jose, Calif.) proliferating cells was assessed by fluorescence-activated cell sorting (FACS; BD Bioscience). Interleukin-2 (IL-2)-dependent human primary T cell proliferation was assessed using CellTiter-Glo® Luminescent Cell Viability Assay (Promega, Madison, Wis.). STAT phosphorylation induced by different cytokines in human primary T cells was measured by intracellular FACS analysis (anti-pY694-STAT5 AlexaFluor488, anti-pY701-STAT1 AlexaFluor488, and anti-pY693-STAT4 AlexaFluor488; BD Biosciences). […] Interferon-γ (IFN-γ) signaling was assessed in the U937 monocytic cell line by measuring ICAM-1 surface expression by FACS (ICAM-1-APC, BD Bioscience).

[2] = system: BN-to-Lew heterotopic heart transplantations; experiment: Graft survival study after 10-day treatment, with combination index; assay type: in vivo, rat; settings: no medication 7±0 days
Text: Male Brown Norway (BN) and Lewis (Lew) rats weighing 350 g were purchased from Harlan (Indianapolis, Ind.) and were housed under conventional conditions. All animals were fed standard rat chow and water ad libitum and received humane care in compliance with the Principles of Laboratory Animal Care formulated by the National Society for Medical Research and the Guide for the care and Use of Laboratory Animals published by the National Institutes of Health (National Institutes of Health publication No. 85-23, revised 1985). Allogeneic (BN-to-Lew) and syngeneic (Lew-to-Lew) heterotopic heart transplantations were performed as described previously (Ono et al., J. Thorac. Cardiovasc. Surg. 57:225-229, 1969). In brief, rats were anaesthetized using 2% isoflurane. The donor received an intravenous bolus of 500 I.U. heparin. Cardiac arrest was achieved using 20 ml Bretschneider solution (Custodiol, Dr. F. Koehler Chemie, Bensheim, Germany). […] Heart-beating score was assessed directly after transplantation for each animal from score 0 (no palpable contraction) to 4 (strong and regular contraction). Only animals with beating scores of 4 were included into the study.
(§2) Compound I and Compound III were provided by Rigel (South San Francisco, Calif.) and Tacrolimus was provided by Astellas (Munich, Germany). All drugs were administrated orally each in two different concentrations: Compound I LD (15 mg/kg BID; n=6) and HD (60 mg/kg BID; n=6); Compound III LD (5 mg/kg BID; n=6) and HD (20 mg/kg BID; n=6); Tac LD (1 mg/kg QD; n=6) and HD (4 mg/kg QD; n=6). Administration of all drugs was performed every day at the same time points. Tacrolimus was applied only once a day (QD) every 24 hours. During administration of Compound I (BID) and Compound III (BID) a 12 hour pause was kept in between each drug application.
BN-to-Lew heterotopic heart transplantations were performed. Recipient animals were treated for 10 days according to Table 1 (10 day survival study group) and graft survival was monitored by daily palpation of the beating donor heart through the abdominal wall. Scoring was assessed according to heart-beating score of 0 to 4. The time of rejection was defined as the last day of palpable cardiac contractions and graft rejection was confirmed by laparotomy.
The median-effect principle of Chou (in Synergism and Antagonism in Chemotherapy, Chou and Rideout, eds, pp. 61-102, Academic Press, 1991) is based on the premise that the effect of each agent is related to its dose and, therefore, can be calculated using the following equation: (fa/fu)=(D/Dm)m, where fa and fu represent the fractions of the system that are affected (% inhibition or rather days of survival beyond controls) and unaffected (1−fa), respectively, by the drug at dose D. Full protection (fa=1) is defined as at least a 28-day survival of allografts. Dm is the dose required for 50% inhibition (ED50), the median effect (m) is a coefficient that describes the sigmoidicy of the dose-effect curve. The interaction between two drugs is assessed by the combination index (CI) equation for the doses to achieve x % inhibition:
[formula] for the mutually nonexclusive case, where each drug has a different mode of action. A computer software program was used to determine the dose-effect parameters (Dm, m, and r), and the CI values (CalcuSyn, Biosoft, Cambridge, United Kingdom).
Graft survival was monitored by daily palpation of the beating donor heart through the abdominal wall and treatment of animals was stopped after 10 days.

[3] = system: JAK2; experiment: GM-CSF whole blood granulocytes phospho-STAT5; assay type: cell-based; settings: read-out: GM-CSF whole blood granulocytes phospho-STAT5 EC50
Experimental: as §1

[4] = system: Lew recipients of heterotopic BN heart transplants; experiment: Five-day heart allograft study: donor-specific IgM antibodies by flow cytometry; assay type: in vivo, rat; settings: LD and HD groups; five days; p<0.001
Experimental: as §2
Lew recipients of heterotopic BN heart transplants were randomly assigned to their group. Animals were either left untreated (groups 1 and 2; see Table 1,5-day study) or received their group specific medication (groups 3-8; see Table 1,5-day study) by oral application. An untreated syngeneic transplant group Lew-Lew was generated as control.
Donor splenocytes were isolated and erythrocytes were lysed using the ACK buffer (Lonza, Walkersville, Md.). Sera from recipient rats were decomplemented and equal amounts of sera and splenocyte suspensions (5×10^6 cells/ml) were incubated for 30 minutes at room temperature. IgM antibodies were stained by incubation of the cells with a conjugated mouse antibody specific for the Fc-portion of rat IgM (Monoclonal Anti-rat IGM, Clone RTM-32, Sigma) followed by incubation with a 488-conjugated secondary antibody (Invitrogen). Cells were washed with PBS, fixed with 2% paraformaldehyde (Science Services), and analyzed on a FACSCalibur™ system (BD Biosciences). Fluorescence data were expressed as mean fluorescence intensity (MFI) using Flowjo software (Tree Star, Inc., Ashland, Oreg.).

[5] = HD (Compound I 60 mg/kg BID, Compound III 20 mg/kg BID, Tac 4 mg/kg QD) for 10 days
[6] = LD (Compound I 15 mg/kg BID, Compound III 5 mg/kg BID, Tac 1 mg/kg QD) for 10 days

| Structure (SMILES) | EC50 ([1]; whole blood, JAK1/3) [nM] | graft survival, mean [2, 5] | graft survival, mean [2, 6] [days] | EC50 ([3]; whole blood, JAK2) [nM] | donor-specific IgM antibodies (DSA) vs. no medication [4] | EC50 [1] [nM] | EC50 [3] [nM] |
| --- | --- | --- | --- | --- | --- | --- | --- |
| COc1cc(Nc2ncc(C)c(Nc3ccc4oc(=O)[nH]c4c3)n2)cc(C)c1F [Compound I, 5-(2-(4-fluoro-3-methoxy-5-methylphenylamino)-5-methylpyrimidin-4-ylamino)benzo[d]oxazol-2(3H)-one] | 416 ± 152 | 22 ± 5 days and 22 ± 6 days | 15 ± 3 | 32700 ± 9510 | significant suppression |  |  |
| COc1cc(Nc2ncc(C)c(Nc3ccc4oc(=O)[nH]c4c3)n2)cc(C)c1C [Compound III, 5-(2-(3-methoxy-4,5-dimethylphenylamino)-5-methylpyrimidin-4-ylamino)benzol[d]oxazol-2-(3H)-one] |  | 20 ± 4 days and 20 ± 2 days | 13 ± 2 |  | significant suppression | 887 ± 295 | > 50000 |
